Results published in patent publication US20140286906A1, “USE OF IGF-1 IN THE MODULATION OF TREG CELL ACTIVITY AND THE TREATMENT AND PREVENTION OF AUTOIMMUNE DISORDERS OR DISEASES” (priority 2011, published 2014).
Read-outs that look alike come from different tables or passages of the source.

Assays:
[1] = mouse, in vivo
Method: The inventors first tested the ability of rhIGF-1 to alter the balance of Treg/CD4 positive cells after five intraperitoneal daily injections (5 μg, FIG. 11).

[2] = tested on: experimental autoimmune encephalomyelitis (EAE); settings: cited from earlier work
[3] = tested on: CD4+CD25+ splenic cells; test: qRT-PCR and microarray gene expression in CD4 CD25 double positive splenic cells; format: cell-based, murine
Method: To further support the effect of IGF-1 on T regulatory function qRT-PCR analysis was performed on CD4 CD25 double positive splenic purified cells in the presence or absence of IGF-1 (FIG. 3). […] IL-10 is a cytokine with a potent anti-inflammatory activity that is produced, among others, by regulatory T cells (Mosser and Zhang, 2008) and its expression is not dependent on Foxp3 expression (Gavin et al., 2007). Foxp3 IL10 expressing cells mainly localize in the intestine and are important regulators of intestine homeostasis. For example, mice with conditional deletion of IL-10 develop spontaneous inflammation of the intestine (Roers et al., 2004). […] Additionally, IL-10 is also important for the maintenance of Foxp3 expression in vivo in mice with colitis (Murai et al., 2009). The inventors performed microarray analysis comparing IGF-1 treated and untreated Tregs. […] An example of these genes is granzyme B, which enables T regulatory cells to actively kill APCs and Teff cells in extreme conditions. These and other mechanisms are believed to lead in vivo to the resolution of the immune response (Tang and Bluestone, 2008). Thus, maintaining the suppressive function after cell expansion was a critical aspect regarding the use of IGF-1 for restoring the balance of effector and regulatory.

[4] = tested on: FOXP3 positive cells (CD25+ splenic cells); test: Foxp3 and Ki67 flow cytometric analysis of Treg proliferation; format: cell-based, murine
Method: To determine the effect of IGF-1 in the regulatory subset in vitro (cf. FIG. 4) the number of FOXP3 positive cells is determined by flow cytometric analysis. To analyze other subsets, like the proinflammatory Th1 and Th17 subsets, a similar approach is used but the number of interferon-gamma (Th1) and IL-17 (Th17) positive cells is determined. Additionally, to evaluate the number of proliferating cells at a given moment cells are stained using the intracellular marker Ki67, which is expressed only in cycling cells. The combination of a specific lineage marker (e.g., Foxp3, IFN-g, IL-17) with Ki67 allows for the determination at a given moment of the cells belonging to a certain subset and their proliferative status.
In animal experiments, the population is isolated normally from murine spleen (but also could be isolated from other tissues, like for example but not restricted to bone marrow, adipose tissue, cord blood derived mononuclear cell, thymus, or peripheral blood) and is sorted using different markers (e.g., CD4 and CD25). This population is defined as CD4+CD25+ and includes the regulatory cells. This population is then treated in the above-mentioned medium in the presence of IGF-1. After several days of culture part of the cells are counted, fixed, permeabilized and analyzed by flow cytometry using an anti-FOXP3 antibody in combination with the same extracellular markers (CD4 and CD25). This allows for the determination of the absolute number of FOXP3 positive cells present in the culture.
To further define the proliferative effects of IGF-1, FACS-sorted CD25+ splenic cells (>98% purity) after two days in culture with recombinant IGF-1 were fixed, permeabilized and stained with antibodies against FOXP3 and Ki67. Foxp3 is a transcription factor that orchestrates the cellular and molecular programs involved in T regulatory function. Ki67 is a nuclear antigen present in proliferating cells. […] After three days of culture the number of FOXP3 positive cells was increased four-fold and the number of regulatory T cells proliferating approximately six-fold.

[5] = tested on: CD4+CD25- cells (T conventional cells); test: Annexin V / living dye apoptosis flow cytometry, CD4+CD25- cells; format: cell-based, murine
Source text: The effects of IGF-1 on apoptosis can be measured by flow cytometry. By using a combination of a living dye and Annexin V staining it is possible to determine four different cell populations which correspond to non-apoptotic, necrotic, early and late apoptosis.
(§1) Initially, and in order to characterize the in vitro effects of IGF-1 on the different populations of the […] immune system, murine splenic CD4 positive cells were sorted by FACS based on the expression of CD25. This allows for the separation and enrichment of conventional T cells (CD25 negative) and regulatory T cells (CD25 positive). […] To exclude the possibility that the observed expansion was due to the anti-apoptotic properties of IGF-1, the cells in culture were stained with AnnexinV (a marker of apoptosis) and a vital dye, and then analyzed by flow cytometry.

[6] = tested on: CD25 negative subset (conventional T cells); test: in vitro expansion of FACS-sorted splenic CD4+CD25- cells; format: cell-based, murine; settings: TCR stimulation with anti-CD3 and anti-CD28 antibodies
Source text: as §1

[7] = tested on: EAE; settings: i.v. 600 μg/day for six days (Liu et al. 1997); cited from earlier work
[8] = qRT-PCR, compared to non-treated cultures
[9] = dose response curve, 2 days stimulation

Insulin-like growth factor-1 [IGF-1]
hIGF-1 in peripheral blood [1]: Elevated levels | increase of IGF-1 levels determined by ELISA [1]: 40 and 4 | course of EAE ([2]; 10 mg/kg per day given after disease onset (Lovett-Racke et al.)): did not significantly alter the course of disease | course of EAE ([2]; 10 mg/kg per day given before disease onset (Lovett-Racke et al.)): mild protection | clinical course of EAE ([2]; administration during the acute phase (Cannella et al.)): some transient clinical amelioration | clinical course of EAE ([2]; chronic phase (Cannella et al.)): no effect | granzyme B gene expression ([3]; microarray, IGF-1 treated versus untreated Tregs): upregulated | Foxp3 mRNA [3, 8]: upregulated from day 1 | IL-10 mRNA [3, 8]: upregulated but with delayed kinetics | dose range at which FOXP3 positive cells respond [4, 9]: falls within physiological ranges | saturability of stimulated pathway/receptor [4, 9]: saturable | increase in number of FOXP3 positive cells ([4]; three days of culture): four-fold | increase in number of regulatory T cells proliferating ([4]; three days of culture): approximately six-fold | double positive FOXP3 Ki67 population ([4]; two days in culture): increase | number of FOXP3 positive cells ([4]; two days in culture): increase | protection from apoptosis [5]: partially protected from apoptosis | in vitro expansion of CD25 negative subset [6]: no reproducible effect | number of infiltrating T cells and macrophages [7]: reduction
